In general, IC50 refers to the concentration needed to halve the response being measured.

These results are taken from PMC7663263 (Molecules, 2020).

The test system of data set [1] is human fetal lung fibroblast (MRC-5). In words: in vitro. On the procedure: (§1) Toxicity in human fetal lung fibroblast (MRC-5) cell line and primary mouse macrophages (PMM) was assessed using a previously reported assay in 96-well microtiter plates. Tamoxifen and miltefosine were included as reference drugs (Table 10).
(§2) For MRC5SV2 or PMM cells, the assays were performed in 96-well microtiter plates, each well containing 10 µL of compound dilution and 190 µL of cell inoculum (3 × 10^4 cells/mL) as reported. Cell growth was compared to untreated controls (100% growth) and assay-media controls (0% growth). After three-day incubation, cell viability was assessed fluorometrically by adding resazurin [50 µL/well of a stock solution in phosphate buffer (50 µg/mL)], incubating for 4 h and measuring fluorescence (ex 550 nm, em 590 nm). The results are expressed as percentage reduction in cell growth as compared to untreated control wells. […] Tamoxifen was included as the reference drug.

For data set [2], the system named is RAW 264.7 macrophages. In words: Cytotoxicity on RAW 264.7 macrophages. It is filed as cell-based, murine. The settings on record: 48 h incubation; read-out: Cytotoxicity on RAW 264.7 Macrophages CC50 (µM) ± SD. On the procedure:
Cytotoxicity was evaluated on RAW 264.7 macrophages that were maintained at 37 °C with 5% CO2 in Dulbecco’s Modified Eagle’s Medium (DMEM, Invitrogen, Toulouse, France) supplemented with 100 U/mL penicillin-streptomycin (Invitrogen) and 10% heat-inactivated fetal bovine serum, as previously described. Briefly, cells were plated in 96-well microplates at a density of 2 × 10^4 cells per well. After incubation for 24 h at 37 °C in 5% CO2, the medium was removed from each well and 100 µL of medium containing 2-fold serial dilutions of compounds was added to each well. After 48 h incubation at 37 °C in 5% CO2, 10 µL of 450 µM resazurin was added to each well and further incubated in the dark for 4 h. Cell viability was determined as described above. The cytotoxicity of the compounds was expressed as CC50.

Data set [3] relates to primary mouse macrophages (PMM). As to the kind of experiment: in vitro. On the procedure:
as §1, §2

For data set [4], the system named is O. ochengi adult female. As to the kind of experiment: Onchocerca ochengi adult female worm assay (MTT/formazan). It is filed as cell-based. The settings on record: 10 μM; females assessed by MTT/formazan assay. Here is the method:
Onchocerca ochengi adult worm assays: For O. ochengi worm assays, subcutaneous nodules containing adult O. ochengi worms were removed from the hides of infected cows collected at abattoirs in Douala, Cameroon. Masses were incubated in 4 mL of complete culture medium (RPMI-1640, 5% newborn calf serum, 200 units/mL penicillin, 200 μg/mL streptomycin and 2.5 μg/mL amphotericin B) in standard 12-well culture plates and maintained in a 37 °C, 5% CO2 incubator overnight during which time the adult males migrated out of the masses while the females remained in the nodules. Compound and control wells (worms in 1% DMSO) were tested in quadruplicate and experiments were repeated twice on different days. Cultures were terminated on day 7. […] Adult female worm viability was assessed on day 7 by the standard MTT/formazan assay in which each nodular mass was placed in a well of a 48-well plate containing 500 μL of 0.5 mg/mL MTT (Sigma-Aldrich) in culture medium. Viability was evaluated visually by the extent to which the female worm mass was stained with MTT. Mean percent inhibition of formazan formation was calculated relative to the negative control worm masses after 7 days in culture.

In data set [5] the target is B. pahangi TrxR. In words: B. pahangi TrxR enzyme assay, DTNB reduction (original data). It is filed as biochemical, Brugia pahangi. As to conditions: 100 nM enzyme, 3 mM DTNB; after 10 min preincubation; read-out: IC50 B. pahangi TrxR, substrate DTNB (original data). Here is the method:
Enzymes were prepared in E. coli as described. Assays were performed at 25 °C in 0.1 M potassium phosphate (pH 7.4), 10 mM EDTA using 100 μM NADPH and 3 mM dithiobis(2-nitrobenzoic acid) (DTNB). […] The increase in A412 during the first 3 min was recorded upon DTNB addition. The reaction was done in triplicate.

Data set [6] has as its system Human TrxR. The settings on record: 30 nM enzyme, 20 µM substrate; after 10 min enzyme-NADPH-gold complex preincubation; read-out: IC50 Human TrxR, substrate hTrxC72S; cited from earlier work.

Take `CC(=O)OCC1OC([S][Au][PH]2(c3ccccc3)C(c3ccccn3)=CC=C2c2ccccn2)C(OC(C)=O)C(OC(C)=O)C1OC(C)=O` [GoPI-sugar, 1-thio-β-D-glucopyranose 2,3,4,6-tetraacetato-S-Au{1-phenyl-2,5-di(2-pyridyl)phosphole}]: the figures for the CC50 in data set [1], in data set [2] and in data set [3] were 590 nM, 4.35 ± 0.04 µM and 8000 nM, respectively. Moreover, in data set [4], the “% Inhibition of Motility O. ochengi Adult Female Day 7” value worked out at 51%. Besides, the values for the IC50 in data set [5] and in data set [6] were 5.5 nM and 4.3 ± 1.6 nM, respectively.
